pIC50: −log10 of the molar value.
What was measured:
[1] = molecular target: Human KDR (residues 790-1356) (Homo sapiens (Human), UniProt P35968); test: Human KDR kinase assay, HTRF KinEase (Example B-2); type: biochemical; conditions: protocol of Example B-2
How it was run: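 Human KDR residues 790-1356 (0.1 ng/well) in buffer with 5 mM MgCl2, 1 mM MnCl2, 1 mM DTT, biotinylated peptide substrate, ATP at Km (4.0 μM), 3% DMSO, 10 compound concentrations; 40 min, room temperature. EDTA stop, streptavidin-XL665/Eu-TK antibody HTRF read 665/620 nm; 4-parameter IC50.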

[2] = molecular target: Mer (phospho-Mer, MERTK-transfected 293A cells) (Homo sapiens (Human), UniProt Q12866); test: Mer autophosphorylation ELISA in transient transfected 293A cells (Example H); type: cell-based; conditions: cellular activity; Mer autophosphorylation ELISA in transient transfected 293A cells
How it was run: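 293A cells transiently transfected with human MERTK were treated 1 h in serum-free medium with an 8-point compound dilution (0.3% DMSO final). Lysates were assayed by phospho-Mer sandwich ELISA against a phospho-Mer standard; IC50 came from a 4-parameter logistic fit, normalised to DMSO (100%) and reference-inhibitor (0%) controls.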

[3] = molecular target: KDR (phospho-KDR, VEGF165-stimulated HUVEC cells) (Homo sapiens (Human), UniProt P35968); test: KDR autophosphorylation ELISA in HUVEC cells (Example G); type: cell-based; conditions: cellular activity; KDR autophosphorylation ELISA in HUVEC cells
How it was run: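 HUVEC cells, serum-starved 24 h, were treated 1 h with an 8-point compound dilution (0.3% DMSO) and then stimulated with 100 ng/mL VEGF165 for 5 min. Phospho-KDR in lysates was quantified by sandwich ELISA against a phospho-KDR standard. IC50 from a 4-parameter logistic fit, normalised between stimulated DMSO and unstimulated controls.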

[4] = molecular target: Human MER (residues 528-999) (Homo sapiens (Human), UniProt Q12866); test: Human Mer kinase assay, HTRF KinEase (Example C-2); type: biochemical; conditions: protocol of Example C-2
How it was run: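 Recombinant MER 528-999 (1 ng/well) in buffer with 5 mM MgCl2 and 1 mM DTT was reacted with biotinylated peptide and ATP at Km (40 μM) for 60 min at room temperature. EDTA stop with SA-XL665 and Eu3+ TK antibody, then 665/620 nm HTRF read; IC50 from 4-parameter fit.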

Human MER (residues 528-999), sequence (Q12866 528-999): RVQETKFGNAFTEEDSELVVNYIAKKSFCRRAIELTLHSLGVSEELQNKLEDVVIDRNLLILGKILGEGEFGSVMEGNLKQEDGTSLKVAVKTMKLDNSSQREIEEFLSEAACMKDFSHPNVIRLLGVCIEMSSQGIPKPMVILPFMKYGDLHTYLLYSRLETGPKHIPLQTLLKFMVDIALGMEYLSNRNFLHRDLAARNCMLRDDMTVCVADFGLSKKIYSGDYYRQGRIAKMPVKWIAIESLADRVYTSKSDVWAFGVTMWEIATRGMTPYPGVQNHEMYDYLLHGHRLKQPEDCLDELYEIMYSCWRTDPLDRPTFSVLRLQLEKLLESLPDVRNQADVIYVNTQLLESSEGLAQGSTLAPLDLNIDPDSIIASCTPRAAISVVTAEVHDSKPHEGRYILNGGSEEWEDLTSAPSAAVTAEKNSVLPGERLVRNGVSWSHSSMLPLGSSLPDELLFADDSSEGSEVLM
Mer (phospho-Mer, MERTK-transfected 293A cells), sequence (Q12866 21-999): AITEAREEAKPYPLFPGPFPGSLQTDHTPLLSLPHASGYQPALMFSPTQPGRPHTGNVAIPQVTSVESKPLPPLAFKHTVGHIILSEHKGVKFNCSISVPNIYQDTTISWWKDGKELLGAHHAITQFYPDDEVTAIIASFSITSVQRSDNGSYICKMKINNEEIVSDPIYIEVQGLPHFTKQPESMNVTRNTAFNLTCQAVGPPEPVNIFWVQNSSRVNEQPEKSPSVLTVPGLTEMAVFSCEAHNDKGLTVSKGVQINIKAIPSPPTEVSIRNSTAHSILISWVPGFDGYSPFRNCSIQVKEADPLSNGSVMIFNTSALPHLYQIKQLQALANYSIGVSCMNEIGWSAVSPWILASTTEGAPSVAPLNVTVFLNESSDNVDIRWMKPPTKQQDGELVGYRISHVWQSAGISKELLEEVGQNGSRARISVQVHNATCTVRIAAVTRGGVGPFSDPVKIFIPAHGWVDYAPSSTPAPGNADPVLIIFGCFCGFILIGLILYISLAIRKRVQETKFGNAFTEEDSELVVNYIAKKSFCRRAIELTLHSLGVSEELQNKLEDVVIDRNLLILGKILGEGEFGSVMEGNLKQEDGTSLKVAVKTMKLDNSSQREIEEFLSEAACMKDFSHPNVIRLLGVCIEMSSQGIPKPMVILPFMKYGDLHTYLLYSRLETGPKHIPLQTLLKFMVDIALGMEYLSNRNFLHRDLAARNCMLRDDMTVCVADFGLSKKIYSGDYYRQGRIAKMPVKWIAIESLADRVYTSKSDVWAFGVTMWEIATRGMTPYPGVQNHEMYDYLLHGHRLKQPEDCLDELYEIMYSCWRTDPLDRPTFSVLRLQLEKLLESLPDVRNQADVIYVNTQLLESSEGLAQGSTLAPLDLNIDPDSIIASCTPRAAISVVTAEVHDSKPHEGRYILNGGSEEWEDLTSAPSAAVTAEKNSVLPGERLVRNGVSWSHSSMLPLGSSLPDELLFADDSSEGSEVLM
KDR (phospho-KDR, VEGF165-stimulated HUVEC cells), sequence (P35968 20-1356): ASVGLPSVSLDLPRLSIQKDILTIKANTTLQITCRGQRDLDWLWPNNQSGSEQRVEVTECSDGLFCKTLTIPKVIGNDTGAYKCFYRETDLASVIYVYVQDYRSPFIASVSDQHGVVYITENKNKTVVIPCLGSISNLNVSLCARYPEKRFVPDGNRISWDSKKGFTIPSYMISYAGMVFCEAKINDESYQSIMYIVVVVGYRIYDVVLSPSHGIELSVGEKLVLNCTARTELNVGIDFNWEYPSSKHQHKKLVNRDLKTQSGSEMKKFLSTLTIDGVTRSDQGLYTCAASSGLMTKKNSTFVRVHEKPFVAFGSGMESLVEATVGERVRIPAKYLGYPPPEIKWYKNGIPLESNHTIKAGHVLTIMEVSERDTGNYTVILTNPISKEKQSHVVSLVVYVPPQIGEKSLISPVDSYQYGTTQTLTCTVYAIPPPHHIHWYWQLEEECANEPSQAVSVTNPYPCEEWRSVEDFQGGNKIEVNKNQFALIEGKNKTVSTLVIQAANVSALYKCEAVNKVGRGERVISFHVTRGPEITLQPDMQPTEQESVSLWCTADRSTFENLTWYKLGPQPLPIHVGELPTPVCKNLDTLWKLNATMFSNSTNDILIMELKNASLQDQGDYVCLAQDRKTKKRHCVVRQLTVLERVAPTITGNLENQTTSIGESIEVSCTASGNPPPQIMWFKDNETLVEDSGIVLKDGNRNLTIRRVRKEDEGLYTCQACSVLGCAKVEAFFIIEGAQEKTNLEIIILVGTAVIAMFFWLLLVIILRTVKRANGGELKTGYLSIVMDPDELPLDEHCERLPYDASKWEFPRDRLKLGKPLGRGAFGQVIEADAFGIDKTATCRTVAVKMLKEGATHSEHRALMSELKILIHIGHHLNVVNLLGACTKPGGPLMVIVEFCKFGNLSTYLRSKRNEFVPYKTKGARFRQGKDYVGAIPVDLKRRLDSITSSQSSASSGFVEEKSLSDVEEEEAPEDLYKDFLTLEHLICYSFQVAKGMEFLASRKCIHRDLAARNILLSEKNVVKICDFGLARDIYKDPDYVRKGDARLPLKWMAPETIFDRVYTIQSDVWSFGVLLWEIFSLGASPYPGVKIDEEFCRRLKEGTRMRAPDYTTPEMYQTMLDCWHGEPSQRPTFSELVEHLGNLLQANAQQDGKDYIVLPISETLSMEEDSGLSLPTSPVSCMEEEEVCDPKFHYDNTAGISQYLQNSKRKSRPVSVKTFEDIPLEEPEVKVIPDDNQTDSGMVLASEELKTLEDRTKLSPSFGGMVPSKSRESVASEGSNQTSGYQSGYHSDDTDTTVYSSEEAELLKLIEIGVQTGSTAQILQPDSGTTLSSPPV
Human KDR (residues 790-1356), sequence (P35968 790-1356): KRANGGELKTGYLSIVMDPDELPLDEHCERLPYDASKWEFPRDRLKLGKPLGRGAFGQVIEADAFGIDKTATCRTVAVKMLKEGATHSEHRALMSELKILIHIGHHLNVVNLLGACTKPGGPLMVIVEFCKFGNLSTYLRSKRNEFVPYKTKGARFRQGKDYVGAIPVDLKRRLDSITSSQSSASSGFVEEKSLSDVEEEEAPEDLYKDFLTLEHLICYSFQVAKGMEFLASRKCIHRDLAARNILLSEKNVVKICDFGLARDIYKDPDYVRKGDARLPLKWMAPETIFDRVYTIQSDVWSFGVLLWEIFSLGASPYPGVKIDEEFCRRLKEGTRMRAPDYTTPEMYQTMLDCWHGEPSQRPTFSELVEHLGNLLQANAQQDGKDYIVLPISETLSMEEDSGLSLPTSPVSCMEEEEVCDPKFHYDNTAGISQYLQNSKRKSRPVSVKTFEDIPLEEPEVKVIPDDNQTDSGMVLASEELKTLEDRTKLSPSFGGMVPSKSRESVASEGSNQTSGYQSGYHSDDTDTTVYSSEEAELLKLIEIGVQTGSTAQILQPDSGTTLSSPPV

## CCn1nc(C(=O)Nc2ccc(Oc3ccnc4cc(OC)c(OC)nc34)c(F)c2)c(=O)c(-c2ccc(F)cc2)c1C [Compound 568, N-[4-[(6,7-Dimethoxy-1,5-naphthyridin-4-yl)oxy]-3-fluorophenyl]-1-ethyl-5-(4-fluorophenyl)-6-methyl-4-oxopyridazine-3-carboxamide]
[1]
  pIC50: > 7.00
[2]
  pIC50: > 7.00
[3]
  pIC50: > 7.00
[4]
  pIC50: > 7.00

## Cc1ncc(C(=O)Nc2ccc(Oc3ccnc4cc(C(N)=O)cnc34)c(F)c2)c(O)c1-c1ccc(F)cc1 [Compound 577, 8-[2-Fluoro-4-[[5-(4-fluorophenyl)-4-hydroxy-6-methylpyridine-3-carbonyl]amino]phenoxy]-1,5-naphthyridine-3-carboxamide]
[1]
  pIC50: > 7.00
[2]
  pIC50: 6.52 to 7.00
[3]
  pIC50: > 7.00
[4]
  pIC50: > 7.00

## CNC(=O)c1cnc2c(Oc3ccc(NC(=O)c4cnc(C)c(-c5ccc(F)cc5)c4O)cc3F)ccnc2c1 [Compound 578, 8-[2-Fluoro-4-[[5-(4-fluorophenyl)-4-hydroxy-6-methylpyridine-3-carbonyl]amino]phenoxy]-N-methyl-1,5-naphthyridine-3-carboxamide]
[1]
  pIC50: 6.52 to 7.00
[2]
  pIC50: < 6.52
[3]
  pIC50: < 6.52
[4]
  pIC50: > 7.00

## COc1cc2nccc(Oc3ccc(NC(=O)c4cn(C(C)C)c(C)c(-c5ccc(F)cc5)c4=O)cc3F)c2nc1N [Compound 579, N-[4-[(6-Amino-7-methoxy-1,5-naphthyridin-4-yl)oxy]-3-fluorophenyl]-5-(4-fluorophenyl)-6-methyl-4-oxo-1-propan-2-ylpyridine-3-carboxamide]
[1]
  pIC50: < 6.52
[2]
  pIC50: > 7.00
[3]
  pIC50: < 6.52
[4]
  pIC50: > 7.00

## COc1cc2nccc(Oc3ccc(NC(=O)c4cn(C(C)C)c(C)c(-c5ccc(F)cc5)c4=O)cc3F)c2nc1O [Compound 580, N-[3-Fluoro-4-[(6-hydroxy-7-methoxy-1,5-naphthyridin-4-yl)oxy]phenyl]-5-(4-fluorophenyl)-6-methyl-4-oxo-1-propan-2-ylpyridine-3-carboxamide]
[1]
  pIC50: < 6.52
[2]
  pIC50: > 7.00
[3]
  pIC50: < 6.52
[4]
  pIC50: > 7.00

## COc1cc2nccc(Oc3ccc(NC(=O)c4cn(C(C)C)c(C)c(-c5ccc(F)cc5)c4=O)cc3F)c2nc1NS(C)(=O)=O [Compound 581, N-[3-Fluoro-4-[[6-(methanesulfonamido)-7-methoxy-1,5-naphthyridin-4-yl]oxy]phenyl]-5-(4-fluorophenyl)-6-methyl-4-oxo-1-propan-2-ylpyridine-3-carboxamide]
[1]
  pIC50: > 7.00
[2]
  pIC50: > 7.00
[3]
  pIC50: < 6.52
[4]
  pIC50: > 7.00

## CNc1nc2c(Oc3ccc(NC(=O)c4cn(C(C)C)c(C)c(-c5ccc(F)cc5)c4=O)cc3F)ccnc2cc1OC [Compound 582, N-[3-Fluoro-4-[[7-methoxy-6-(methylamino)-1,5-naphthyridin-4-yl]oxy]phenyl]-5-(4-fluorophenyl)-6-methyl-4-oxo-1-propan-2-ylpyridine-3-carboxamide]
[1]
  pIC50: > 7.00
[2]
  pIC50: > 7.00
[3]
  pIC50: 6.52 to 7.00
[4]
  pIC50: > 7.00

## COc1cc2nccc(Oc3ccc(NC(=O)c4cnc(C)c(-c5ccc(F)cc5)c4O)cc3F)c2nc1NS(C)(=O)=O [Compound 584, N-[3-Fluoro-4-[[6-(methanesulfonamido)-7-methoxy-1,5-naphthyridin-4-yl]oxy]phenyl]-5-(4-fluorophenyl)-4-hydroxy-6-methylpyridine-3-carboxamide]
[1]
  pIC50: > 7.00
[2]
  pIC50: 6.52 to 7.00
[3]
  pIC50: > 7.00
[4]
  pIC50: > 7.00

## CNc1c(-c2ccc(F)cc2)c(=O)c(C(=O)Nc2ccc(Oc3ccnc4cc(OC)cnc34)c(F)c2)cn1C [Compound 585, N-[3-Fluoro-4-[(7-methoxy-1,5-naphthyridin-4-yl)oxy]phenyl]-5-(4-fluorophenyl)-1-methyl-6-(methylamino)-4-oxopyridine-3-carboxamide]
[1]
  pIC50: < 6.52
[2]
  pIC50: > 7.00
[3]
  pIC50: < 6.52
[4]
  pIC50: > 7.00

## COc1cnc2c(Oc3ccc(NC(=O)c4cn(C)c(C#N)c(-c5ccc(F)cc5)c4=O)cc3F)ccnc2c1 [Compound 586, 6-Cyano-N-[3-fluoro-4-[(7-methoxy-1,5-naphthyridin-4-yl)oxy]phenyl]-5-(4-fluorophenyl)-1-methyl-4-oxopyridine-3-carboxamide]
[1]
  pIC50: < 6.52
[2]
  pIC50: > 7.00
[3]
  pIC50: < 6.52
[4]
  pIC50: > 7.00

## COc1cnc2c(Oc3ccc(NC(=O)c4cn(C)c(OC)c(-c5ccc(F)cc5)c4=O)cc3F)ccnc2c1 [Compound 587, N-[3-Fluoro-4-[(7-methoxy-1,5-naphthyridin-4-yl)oxy]phenyl]-5-(4-fluorophenyl)-6-methoxy-1-methyl-4-oxopyridine-3-carboxamide]
[1]
  pIC50: < 6.52
[2]
  pIC50: > 7.00
[3]
  pIC50: < 6.52
[4]
  pIC50: > 7.00

## CCc1nc2c(Oc3ccc(NC(=O)c4cn(C(C)C)c(C)c(-c5ccc(F)cc5)c4=O)cc3F)ccnc2cc1OC [Compound 588, N-[4-[(6-Ethyl-7-methoxy-1,5-naphthyridin-4-yl)oxy]-3-fluorophenyl]-5-(4-fluorophenyl)-6-methyl-4-oxo-1-propan-2-ylpyridine-3-carboxamide]
[1]
  pIC50: < 6.52
[2]
  pIC50: > 7.00
[3]
  pIC50: < 6.52
[4]
  pIC50: > 7.00

## CCc1nc2c(Oc3ccc(NC(=O)c4cnc(C)c(-c5ccc(F)cc5)c4O)cc3F)ccnc2cc1OC [Compound 589, N-[4-[(6-Ethyl-7-methoxy-1,5-naphthyridin-4-yl)oxy]-3-fluorophenyl]-5-(4-fluorophenyl)-4-hydroxy-6-methylpyridine-3-carboxamide]
[1]
  pIC50: > 7.00
[2]
  pIC50: > 7.00
[3]
  pIC50: > 7.00
[4]
  pIC50: > 7.00

## Cc1cc(F)ccc1-c1c(C)ncc(C(=O)Nc2ccc(Oc3ccnc4cc(C(C)C)cnc34)c(F)c2)c1O [Compound 593, 5-(4-Fluoro-2-methylphenyl)-N-[3-fluoro-4-[(7-propan-2-yl-1,5-naphthyridin-4-yl)oxy]phenyl]-4-hydroxy-6-methylpyridine-3-carboxamide]
[1]
  pIC50: < 6.52
[2]
  pIC50: > 7.00
[3]
  pIC50: > 7.00
[4]
  pIC50: 6.52 to 7.00

## Cc1ncc(C(=O)Nc2ccc(Oc3ccnc4cc(C(C)C)cnc34)cc2)c(O)c1-c1ccc(F)cc1 [Compound 594, 5-(4-Fluorophenyl)-4-hydroxy-6-methyl-N-[4-[(7-propan-2-yl-1,5-naphthyridin-4-yl)oxy]phenyl]pyridine-3-carboxamide]
[1]
  pIC50: < 6.52
[2]
  pIC50: > 7.00
[3]
  pIC50: > 7.00
[4]
  pIC50: > 7.00

## Cc1nc(C)c(-c2ccc(F)cc2)c(O)c1C(=O)Nc1ccc(Oc2ccnc3cc(C(C)C)cnc23)c(F)c1 [Compound 595, 5-(4-Fluorophenyl)-N-[3-fluoro-4-[(7-propan-2-yl-1,5-naphthyridin-4-yl)oxy]phenyl]-4-hydroxy-2,6-dimethylpyridine-3-carboxamide]
[1]
  pIC50: 6.52 to 7.00
[2]
  pIC50: > 7.00
[3]
  pIC50: > 7.00
[4]
  pIC50: > 7.00

## Cc1ncc(C(=O)Nc2ccc(Oc3ccnc4cc(C(C)C)cnc34)c(F)c2)c(O)c1-c1ccc(F)cc1 [Compound 596, 5-(4-Fluorophenyl)-N-[3-fluoro-4-[(7-propan-2-yl-1,5-naphthyridin-4-yl)oxy]phenyl]-4-hydroxy-6-methylpyridine-3-carboxamide]
[1]
  pIC50: < 6.52
[2]
  pIC50: > 7.00
[3]
  pIC50: > 7.00
[4]
  pIC50: > 7.00

Reference: patent US12371428B2 (Exelixis, Inc., priority 2019, dated 2025)
